Here are results for one sequence from patent US11999806B2, “Broad-spectrum polypeptide against enterovirus and application thereof” (WUHAN INSTITUTE OF VIROLOGY, CHINESE ACADEMY OF SCIENCES, priority 2018, dated 2024).

The test system of this test is EV71. Put plainly: Anti-EV71 efficiency in Huh7.5 cells, viral RNA by qRT-PCR. It is filed as cell-based, enterovirus 71. Conditions: read-out: IC50 against EV71 by qRT-PCR.
Text: […]

No end group written: not given here.

Regarding RRRRRRRREEVRQYCRDQ [P2], the IC50 was found to be 1.84 µM.

By IC50 is commonly meant the midpoint of a concentration-inhibition curve.
